“Also recorded” adds a separate entry of the source.
Legend:
[1] = test system: human ACLC/HD-cell lines; conditions: cited from earlier work
[2] = test system: HD and ALCL; conditions: cited from earlier work
[3] = test system: human NPM-ALK positive and PDGFRB negative cell line SR-786; test: Cell number after three days culture with inhibitor, cell line SR-786; conditions: different concentrations, three days in RPMI medium
[4] = test system: murine NPM-ALK positive cell line CD4-417 tumors; test: Murine xenograft model, CD4-417 cells in flank of SCID mice
[5] = test system: murine NPM-ALK and PDGFRB positive cell line 417; test: Cell number after three days culture with inhibitor, cell line 417; conditions: different concentrations, three days in RPMI medium
[6] = biological target: T1, NPM-ALK (Homo sapiens, UniProt Q9UM73); conditions: cited from earlier work
T1 construct: the other entry of the earlier key: NPM1 (P06748, Nucleophosmin)
T1 sequence (Q9UM73 with tags, fused parts or gaps): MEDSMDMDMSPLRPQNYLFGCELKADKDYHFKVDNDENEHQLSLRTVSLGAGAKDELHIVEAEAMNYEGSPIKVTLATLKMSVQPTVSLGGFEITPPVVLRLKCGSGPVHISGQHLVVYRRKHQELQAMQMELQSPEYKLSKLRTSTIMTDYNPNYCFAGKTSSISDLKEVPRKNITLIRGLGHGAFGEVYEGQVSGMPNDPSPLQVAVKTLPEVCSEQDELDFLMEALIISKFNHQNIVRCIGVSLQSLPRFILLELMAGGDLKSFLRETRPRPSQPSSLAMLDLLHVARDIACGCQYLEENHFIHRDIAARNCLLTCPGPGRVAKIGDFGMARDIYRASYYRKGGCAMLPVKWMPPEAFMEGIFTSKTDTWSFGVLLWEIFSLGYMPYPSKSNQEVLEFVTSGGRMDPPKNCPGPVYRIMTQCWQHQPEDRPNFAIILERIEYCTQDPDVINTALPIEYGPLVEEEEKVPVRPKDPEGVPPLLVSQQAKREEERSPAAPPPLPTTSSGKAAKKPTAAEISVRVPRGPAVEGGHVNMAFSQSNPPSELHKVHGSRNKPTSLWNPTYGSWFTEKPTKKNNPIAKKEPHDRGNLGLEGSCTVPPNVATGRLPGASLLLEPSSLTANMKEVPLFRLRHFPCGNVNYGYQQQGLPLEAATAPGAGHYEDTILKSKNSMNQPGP

[7] = test system: 417 cells; test: Alamar Blue assay (apoptosis), 417 cells; type: cell-based, mouse
Procedure: (§1) Apoptosis rates were measured by Alamar Blue assays. The active ingredient of Alamar Blue is resazurin, a non-fluorescent dark blue indicator dye. It is able to permeate cells and is converted to resorufin, a fluorescent, bright red dye, in a reduction reaction by living (metabolically active) cells. The produced fluorescence is proportional to the number of metabolically active cells.
(§2) We incubated SR-786 and 417 cells treated with 0-20 μM imatinib with Alamar Blue for one hour at 37 degrees Celsius.

[8] = test system: SR-786 cells; test: Alamar Blue assay (apoptosis), SR-786 cells; type: cell-based, human
Procedure: as §1, §2

[9] = test system: human ALK positive ALCL cell lines; conditions: cited from earlier work
[10] = test system: CD30; conditions: cited from earlier work
[11] = test system: Karpas-299 lymphomas; conditions: cited from earlier work

Structure (SMILES): CNC(=O)c1cc(Oc2ccc(NC(=O)Nc3ccc(Cl)c(C(F)(F)F)c3)cc2)ccn1 [sorafenib, 4-[4-[[4-chloro-3-(trifluoromethyl)phenyl]carbamoylamino]phenoxy]-N-methyl-pyridine-2-carboxamide]
- apoptosis in human ACLC/HD-cell lines [1]: able to induce apoptosis
- in vivo treatment of HD and ALCL [2]: not effective

Structure (SMILES): Cc1cn(-c2cc(NC(=O)c3ccc(C)c(Nc4nccc(-c5cccnc5)n4)c3)cc(C(F)(F)F)c2)cn1 [nilotinib, 4-methyl-N-[3-(4-methyl-1H-imidazol-1-yl)-5-(trifluoromethyl)phenyl]-3-[(4-pyridin-3-ylpyrimidin-2-yl)amino]benzamide]
- cell number / proliferation rates, cell line SR-786 [3]: remain unaffected
- tumor weight vs untreated control tumors ([4]; after 6 days of treatment): drastically reduced
- tumor size reduction ([4]; nilotinib treatment, xenografted mice): more than 59%
- cell number (antiproliferative effect), cell line 417 [5]: strongly react; also recorded: dose dependent reduction in cell number

Structure (SMILES): Cc1ccc(NC(=O)c2ccc(CN3CCN(C)CC3)cc2)cc1Nc1nccc(-c2cccnc2)n1 [imatinib, 4-[(4-methylpiperazin-1-yl)methyl]-N-[4-methyl-3-[(4-pyridin-3-ylpyrimidin-2-yl)amino]phenyl]benzamide]
- binding to ALK [6]: unable to bind ALK
- sensitivity of NPM-ALK to imatinib treatment [6]: insensitive
- conversion of resazurin to resorufin, 417 cells at 0-10 μM ([7]; 0-10 μM, Alamar Blue one hour at 37 degrees Celsius): responded similar to SR-786 cells
- conversion of resazurin to resorufin (color change), 417 cells at 20 μM ([7]; 20 μM, Alamar Blue one hour at 37 degrees Celsius): not able to induce the color change
- apoptosis by Alamar Blue, 417 cells at 20 μM ([7]; 20 μM, three days after treatment): strongly increased; also recorded: high apoptosis
- apoptosis by Alamar Blue, 417 cells, dose dependence ([7]; in vitro, 0-20 μM): increased apoptosis rates; also recorded: dose dependent apoptosis
- conversion of resazurin to resorufin, SR-786 cells ([8]; 0-20 μM, Alamar Blue one hour at 37 degrees Celsius): comparable rate, regardless of imatinib concentrations
- apoptosis by Alamar Blue, SR-786 cells ([8]; up to 20 μM, three days): unaffected
- cell number (antiproliferative effect), cell line 417 [5]: increasingly impaired; also recorded: strongly react; also recorded: reduced cell numbers; also recorded: dose dependent reduction in cell number
- effect on ALCL cell lines [9]: unable to show effects

Structure (SMILES): COc1cc(N2CCC(N3CCN(C)CC3)CC2)ccc1Nc1ncc(Cl)c(Nc2ccccc2S(=O)(=O)C(C)C)n1 [NVP-TAE684]
- CD30 expression [10]: induced down-regulation
- established Karpas-299 lymphomas in vivo [11]: induced regression
- lymphomagenesis in two independent models of ALK-positive ALCL ([11]; in vivo): suppress lymphomagenesis
